Assay results from PMC6748671, “Distribution of Small Molecular Weight Drugs into the Porcine Lens: Studies on Imaging Mass Spectrometry, Partition Coefficients, and Implications in Ocular Pharmacokinetics” (Molecular Pharmaceutics, 2019).
Where two headings read alike, the source gives them in different places. Each block holds one compound with its values, some of them ahead of it.

Legend:
[1] = design: method as in PMID 1898917; details: highest Kp of previous reports; cited from earlier work
[2] = pH 7.0; cited from earlier work
[3] = cited from earlier work
[4] = In vitro lens/buffer partition coefficient (Kp), isolated porcine lens, cassette mix, LC–MS/MS; details: for Kp at 4 h: pig, isolated porcine lens
[5] = Drug distribution in the porcine lens by MALDI-IMS; details: for share of total lens volume into which the drugs distributed: pig, 4 h; for distribution pattern in the lens (MALDI-IMS): porcine lens, 4 h in vitro incubation
Procedure: After 4 h, the buffer was removed from the vials and the lenses were rinsed with HBSS–HEPES and gently blotted dry. The lenses were weighed, snap-frozen with liquid nitrogen in flat-bottomed plastic tubes, and then stored at −80 °C until sample preparation and analysis with MALDI-IMS. For the experiment, a smaller set of 16 drugs was used.
The frozen lenses were mounted onto a chuck using an optimal cutting temperature compound (Sakura Finetek, CA, USA) on the equatorial side. The lenses were sectioned to 10 μm thickness at −20 °C on a Leica CM Cryostat (S3050, Leica Microsystems GmbH, Germany), equipped with a FEATHER Microtome C35 blade (pfm medical, UK), and collected on a cryofilm (3C16UF, SECTION-LAB Co. Ltd. Yokohama, Japan) by modified Kawamoto method.[23] The film was subsequently mounted onto a microscopy glass slide using a double-sided copper tape. The slides were washed twice with 50 mM ammonium formate for 30 s and dried in a vacuum desiccator. The sample slides contained three lens sections from the drug mixture experiment and three blanks. […] Matrix α-cyano-4-hydroxycinnamic acid (7 mg/mL in 50% acetonitrile containing 1% trifluoro acetic acid) (Sigma-Aldrich, St. Louis, MO, USA) was added via spray deposition using 10 passes, flow rate of 100 μL/min, temperature of 77 °C, track spacing of 2.5 mm, and velocity of 1300 mm/min (HTX Industries, TM-Sprayer, NC, USA).
MALDI Fourier transform-ion cyclotron resonance (FT-ICR)-IMS was performed using a Bruker 7T solariX XR mass spectrometer (Bruker Daltonics, Germany) at a 75 μm spatial resolution.
The drugs were identified as their [M + H]^+ ions. Peak finding was performed using mass error less than 2.5 ppm. MALDI images for each detected compound were plotted using a 0.01 μ mass window. From the images of the individual drugs, the intensity profiles across a 30 pixel (2.25 mm) wide area in anterior–posterior axis were plotted with ImageJ software (National Institutes of Health, USA).

[6] = design: method as in PMID 7341754, PMID 2724118; details: in rabbit and human; cited from earlier work
[7] = design: method as in PMID 2724118; details: lowest Kp of previous reports; cited from earlier work
in vitro = details: pig
[8] = Pharmacokinetic simulation of topical timolol instillation with lens compartment; design: species or system rabbit
Procedure: A pharmacokinetic simulation model for rabbit was built for topical timolol instillation based on the model of Ranta et al.[25] The lens compartment, separate from the reservoir compartment, was added to the model (Figure 1). The unknown parameter values for timolol distribution clearance between aqueous humor and lens (QLENS), Kp, and clearance from tear fluid to cornea (CLTF,CO) were obtained by adjusting the values manually until the simulated concentration in the lens matched with in vivo data on timolol distribution to the rabbit lens.[26] Finally, the distribution clearance between the aqueous humor and the reservoir (QRESERVOIR) and the volume of the reservoir (VRESERVOIR) were adjusted to match the corresponding parameters in the original model. For details of the model building and parameters, see the Supporting Information. STELLA software (v8.1.1, isee systems) was used to construct the simulation model.
Kinetic simulations were carried out to estimate how drug partitioning into the lens might affect ocular pharmacokinetics after single and multiple doses of eye drops. […] The run time was 7 days and the delta time was 0.5 min.
Pharmacokinetic simulations
The pharmacokinetic simulation model was built on a model of topical timolol instillation4, where a lens compartment, separate from the reservoir compartment, was added . Experimental concentration -time data, extracted with Webplotdigitizer ( v4.2, https://automeris.io/WebPlotDig-itizer), in the aqueous humor and lens after topical dosing of timolol 5 was used as a basis for the […]
The timolol distribution clearance between aqueous humor and lens (QLENS), lens-buffer partition coefficient (Kp) and clearance from tear fluid to cornea (CL TF,CO) were obtained by com-paring the simulated curves with experimental in vivo data on timolol distribution in the rabbit […]
and QLENS values, the distribution clearance between aqueous humor and reservoir (QRESERVOIR) and volume of the reservoir (VRESERVOIR) were changed to match the corresponding parameters in the original model4 (Supplementary table 1).
Supplementary figure 6. Adjustment of the lens-aqueous humor partition coefficient (Kp), the clearance between aqueous humor and lens (QLENS) and clearance from tear fluid to cornea (CLTF,CO) with experimental data5.
(1 picture or pasted object on this page, not shown here)
Supplementary table 1. Parameters for the pharmacokinetic simulation model.

[9] = rabbit model parameter, cited from earlier work
[10] = rabbit, adjusted from original model
[11] = rabbit, adjusted with experimental in vivo data

Compound: CCCCCOc1ccc(C2SC(=O)NC2=O)cc1OCC (centres unmarked) [CT-112]
lens Kp in previous reports [1]: 8

Compound: CCN(CC)c1ccc2c(-c3ccccc3C(=O)O)c3ccc(=[N+](CC)CC)cc-3oc2c1 [Rhodamine-B]
experimental log D7.0 [2]: 2

Compound: C[C@@H]1C[C@H]2[C@@H]3CCC4=CC(=O)C=C[C@]4(C)[C@@]3(F)[C@@H](O)C[C@]2(C)[C@@]1(O)C(=O)CO [dexamethasone]
concentration in the lens in vivo compared with aqueous humor, iris and ciliary body [3]: much lower

Compound: O=C(O)Cc1ccccc1Nc1c(Cl)cccc1Cl [diclofenac]
concentration equilibrium between incubate and lens at 4 h ([4]; porcine lens in vitro, incubation time 4 h (Figure S7)): would have required longer incubation time to reach true equilibria

Compound: O=C1OC2(c3ccc(O)cc3Oc3cc(O)ccc32)c2ccccc21 [fluorescein sodium]
experimental log D7.0 [2]: 0.1

Kp at 4 h [4]: 0.047
Compound: CC(=O)/N=c1/sc(S(N)(=O)=O)nn1C [methazolamide]

share of total lens volume into which the drugs distributed [5]: 27.1%
Kp at 4 h [4]: 0.145
Compound: CC[C@@H]1C(=O)OC[C@@H]1Cc1cncn1C [pilocarpine]
distribution pattern in the lens (MALDI-IMS) [5]: only in the capsule and cortex of the lens but not in the nucleus
lens Kp, previous literature [6]: 0.3–1.0
concentration in the lens in vivo compared with aqueous humor, iris and ciliary body [3]: much lower
lens Kp in previous reports [7]: about 0.3

share of total lens volume into which the drugs distributed [5]: 27.1%
Compound: CC(C)NCC(O)COc1cccc2[nH]ccc12 (centres unmarked) [pindolol]

share of total lens volume into which the drugs distributed [5]: 27.1%
Kp at 4 h (in vitro): 0.762
Compound: CC(C)NCC(O)COc1cccc2ccccc12 (centres unmarked) [propranolol]

QRESERVOIR (distribution clearance between aqueous humor and reservoir) [8, 10]: 11.888 µL/min
VRESERVOIR (reservoir volume) [8, 10]: 262 µL
CLTF,CO (clearance from tear fluid to cornea) [8, 11]: 1.3 µL/min
QLENS (distribution clearance between aqueous humor and lens) [8, 11]: 0.6 µL/min
Kp ([8]; topical, rabbit lens, adjusted manually to in vivo data on timolol distribution (Lee et al.), read-out: Kp (lens-buffer partition coefficient), model parameter): 0.35
Compound: CC(C)(C)NC[C@H](O)COc1nsnc1N1CCOCC1 [timolol]
concentration in the lens in vivo compared with aqueous humor, iris and ciliary body [3]: much lower
kel (elimination rate constant) ([9]; aqueous humor, ref SI 4, 8): 0.057 min⁻¹
CLTF,CJ (clearance from tear fluid by conjunctival absorption) ([9]; ref SI 4, 7): 10.4 µL/min

share of total lens volume into which the drugs distributed [5]: 27.1%
Compound: Clc1ccc2nsnc2c1NC1=NCCN1 [tizanidine]
distribution pattern in the lens (MALDI-IMS) [5]: only in the capsule and cortex of the lens but not in the nucleus

Compound: Rhodamine-123
experimental log D7.0 [2]: 0.4
